The results in this text go back to ChEMBL document CHEMBL1155622, “New acetylenic compounds from the stony coral Montipora sp” (2000).

Assay type in all cases: functional
Conditions in all cases: read-out: ED50 (the source's name)

One assay deals with SK-OV-3. The experiment in a line: Cytotoxicity against human SK-OV-3 cells.
The test system of the next assay is XF498. The experiment in a line: Cytotoxicity against human XF498 cells.
Another assay has as its system SK-MEL-2. Kind of assay: Cytotoxicity against human SK-MEL-2 cells.
A further assay relates to A549. Kind of assay: Cytotoxicity against human A549 cells.
The next assay relates to HCT-15. Kind of assay: Cytotoxicity against human HCT15 cells.

The structures appear in SMILES notation. Values after ≈ are worked out from the molar mass of the structure shown.

Turning to `C=CCCCCCCCC#CC#C/C=C\C(C)=O` [MONTIPORYINE D], the EC50 in the assay on SK-OV-3 was 45.1 µg/mL (≈ 186 µM); with XF498 it was more than 50 µg/mL; with SK-MEL-2, 43.1 µg/mL (≈ 178 µM); in the assay on A549 it was more than 50 µg/mL; in the assay with HCT-15, more than 50 µg/mL.

With `CCCCCCCC#CC#CC1=CC(=O)NCCC1` [MONTIPORYINE E], the EC50 in the assay on SK-OV-3, in the assay on XF498, with SK-MEL-2, with A549 and in the assay with HCT-15 was more than 50 µg/mL each time.

As to `CCCCCCCC#CC#CC1CC(=O)C=C(C)C1` (stereo not given) [MONTIPORYINE F], the EC50 in the assay with SK-OV-3 was 29.2 µg/mL (≈ 114 µM); with XF498 it was 31.3 µg/mL (≈ 122 µM); in the assay with SK-MEL-2, 36.7 µg/mL (≈ 143 µM); with A549, more than 50 µg/mL; in the assay with HCT-15, 45.1 µg/mL (≈ 176 µM).

`CCCCCCCC#CC#C/C=C/C(C)=O` [MONTIPORYNE A]: the EC50 in the assay on SK-OV-3 was 3.2 µg/mL (≈ 14.8 µM); in the assay with XF498 it was 1.9 µg/mL (≈ 8.78 µM); in the assay on SK-MEL-2, 1.4 µg/mL (≈ 6.47 µM); in the assay with A549, more than 50 µg/mL; with HCT-15, 3.7 µg/mL (≈ 17.1 µM).

`CCCCCCCC#CC#C/C=C\C(C)=O` [MONTIPORYNE B]: the EC50 with SK-OV-3 was 25.9 µg/mL (≈ 120 µM); in the assay on XF498, more than 50 µg/mL; in the assay with SK-MEL-2, 42.6 µg/mL (≈ 197 µM); with A549, more than 50 µg/mL; in the assay with HCT-15, more than 50 µg/mL.

With `C=CCCCCCCCC#CC#C/C=C/C(C)=O` [MONTIPORYNE C], the EC50 with SK-OV-3 was 2.5 µg/mL (≈ 10.3 µM); in the assay on XF498, 3.2 µg/mL (≈ 13.2 µM); with SK-MEL-2, 1.5 µg/mL (≈ 6.19 µM); in the assay with A549, more than 50 µg/mL; with HCT-15, 5.2 µg/mL (≈ 21.5 µM).
